# According to patent publication US20020103107A1, “Screening assay for anti-thrombotic/anti-platelet activity” (priority 2000, published 2002):
# What was measured:
# [1] = system: thrombin; assay: Thrombin activity with thrombin substrate CBS 34.47, product monitored at 405 nm; type: biochemical; conditions: in presence of polymerizing fibrin-thrombin complex and platelets; CBS 34.47 7.5 μM; 5 minutes incubation
# Method: (§1) AEBSF blocks the catalytic site, but not the GP Ib-binding site of thrombin. Platelets were treated under identical conditions with AEBSF plus the thrombin substrate CBS 34.47 (7.5 μM) in order to determine if AEBSF remains active in the presence of the polymerizing fibrin-thrombin complex. After 5 minutes incubation, the platelets were pelleted in a microcentrifuge for 4 minutes at 14,000 rpm and the generation of product was monitored at 405 nm. AEBSF inhibited thrombin activity in excess of 90%.
# [2] = system: human platelets; assay: Platelet aggregation of washed platelets (aggregometer), α-thrombin and other agonists
# Method: The requirement of GP Ib for polymerizing fibrin was defined in a series of studies where results were compared with thrombin plus fibrinogen added to platelets versus platelets added to polymerizing fibrin. Washed platelets (50 μl) as a 10× concentrate were added to 0.05 to 0.1 U/ml α-thrombin plus fibrinogen pre-incubated for 2 minutes (polymerizing fibrin) in 430 μl buffer.
# Blood was drawn by venopuncture into plastic tubes that contained 1/10 volume 3.8% citrate and platelet-rich plasma (PRP) was prepared in accordance with known techniques (Soslau, G. and J. Giles. 1982. Thrombos. Res. 26:443-455). Blood samples were obtained from healthy donors who were medication free. Washed platelets were prepared from the PRP by known methods (Basheer, A. R. et al. 1995. Biochim. Biophys. Acta 1250:97-109). Briefly, PRP was diluted with 3 volumes of 100 nM citrate buffer (pH 6.0) plus 1 to 2 volumes of hepes Tyrode's buffer (pH 7.4), final volume of 50 ml, and resuspended in hepes Tyrode's buffer with 1 mg/ml dextrose plus 1 mg/ml bovine serum albumin at 2×10^6/μl to 3×10^6/μl (a 10× normal concentration).
# Platelet aggregations were performed on a dual-channel Chronolog lumi aggregometer (Chronolog Corp., Havertown, Pa.) by known methods (Soslau, G. et al. 1988. Biochem. Biophys. Res. Commun. 15:909-916). Aggregations were conducted with 480 μl washed platelets or a 50 μl sample of the concentrated platelets added to 430 μl hepes Tyrode's buffer with a final platelet count of 2×0^5/μl to 3×10^5/μl. Agonists and antagonists were added at various concentrations.
# [3] = system: GP Ib; assay: Platelet aggregation via the GP Ib pathway (α-thrombin with PAR-1 blocked / polymerizing fibrin); type: cell-based, human
# Method: This antibody is known to selectively bind to the thrombin binding site.
# The presence of three distinct thrombin receptors on human platelets was shown in experiments with combinations of inhibitors and PAR-4 desensitization. Platelets treated with SCH203099 (7.5 μM) plus ATAP-2 (50 μg/ml) have the PAR-1 receptor blocked at two levels, the tethered ligand and the PAR-1 receptor site for the tethered ligand. […] The delay in aggregation can be explained by the time required for the generation of polymerizing fibrin which would participate in platelet aggregation. This alternative α-thrombin pathway would be obscured normally by the rapid acting PAR-1 pathway.
# as §1
# [4] = system: platelets; assay: ATP release (platelet release reaction); type: cell-based, human; conditions: versus corresponding control samples
# Method: (§2) Further studies were conducted to distinguish between polymerizing fibrin-dependent platelet aggregation versus platelet trapping. True platelet aggregation involves signal transduction, second messenger formation with subsequent mobilization of internal calcium stores and the platelet release reaction. Platelet trapping, in contrast, by polymerizing fibrin would not involve any of these secondary responses. […] The platelet release reaction was monitored by release of dense granule ATP. Here the release reaction was followed simultaneously with aggregation. […] However, conditions that induced platelet adhesion/polymerizing fibrin-trapping were not associated with any ATP release.
# The platelet release reaction was monitored simultaneously in some experiments with aggregation per known techniques (Soslau, G. and J. Parker. 1992. Thromb. Res. 66:15-21). The release of dense granule ATP from aggregating platelets was detected as light emission in the Chronolog lumi-aggregometer produced by the reaction of ATP with luciferin catalyzed by luficerase (chrono-lume).
# [5] = target: T1, PAR-4 (Homo sapiens, UniProt Q96RI0); assay: Platelet aggregation via the PAR-4 pathway (TRAP-4 / γ-thrombin); type: cell-based; conditions: SCH203099 5 to 10 μM
# T1 sequence (Q96RI0 18-385): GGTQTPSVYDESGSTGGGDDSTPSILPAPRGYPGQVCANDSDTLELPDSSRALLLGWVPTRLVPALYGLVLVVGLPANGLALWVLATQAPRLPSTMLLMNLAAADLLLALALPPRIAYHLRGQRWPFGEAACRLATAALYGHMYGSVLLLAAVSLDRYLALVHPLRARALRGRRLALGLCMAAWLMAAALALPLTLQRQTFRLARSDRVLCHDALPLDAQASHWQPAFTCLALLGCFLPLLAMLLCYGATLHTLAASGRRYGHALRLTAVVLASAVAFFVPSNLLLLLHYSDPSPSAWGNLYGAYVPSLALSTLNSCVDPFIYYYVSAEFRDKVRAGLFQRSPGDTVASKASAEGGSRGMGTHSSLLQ
# [6] = target: PAR-1 (Homo sapiens, UniProt P25116); assay: Platelet aggregation via the PAR-1 pathway (TRAP-1 / rapid onset α-thrombin response); type: cell-based
# PAR-1, sequence (P25116 22-425): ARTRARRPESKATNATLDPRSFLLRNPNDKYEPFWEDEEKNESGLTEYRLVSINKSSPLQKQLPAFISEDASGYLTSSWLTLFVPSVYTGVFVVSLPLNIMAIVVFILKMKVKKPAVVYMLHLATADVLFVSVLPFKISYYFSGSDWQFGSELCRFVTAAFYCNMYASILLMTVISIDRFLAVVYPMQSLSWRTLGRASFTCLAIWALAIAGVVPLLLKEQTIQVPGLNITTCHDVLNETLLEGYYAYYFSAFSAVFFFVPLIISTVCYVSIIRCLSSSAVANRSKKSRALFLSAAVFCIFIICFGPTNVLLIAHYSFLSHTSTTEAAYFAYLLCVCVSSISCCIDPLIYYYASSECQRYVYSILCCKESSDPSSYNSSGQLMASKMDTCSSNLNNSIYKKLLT
# Text: Therefore, GP Ib is the likely candidate.
# [7] = system: platelets; assay: Synergistic platelet aggregation with suboptimal doses of agonists; type: cell-based, human; conditions: PAR1 inactivated
# Method: In all cases, the sum of the aggregation induced by the individual agonists at suboptimal concentrations varied between 0 and 15% (agonist concentrations varied between 0.01 and 0.005 U/ml for α-thrombin; 0.1 to 2 nM for γ-thrombin; 0.38 to 0.76 μM for TRAP-1; 175 to 350 μM for TRAP-4). The low dose of α-thrombin employed was below the level required to function at PAR-1 or PAR-4 but adequate to activate GP Ib. TRAP-4 and γ-thrombin appeared to function only at PAR-4.
# [8] = system: platelets; assay: Calcium mobilization in Fura-2 loaded platelets; type: cell-based, human; conditions: 10 μM SCH 203099 for one hour
# Method: as §2
# The mobilization of internal stores of calcium, [Ca^+2]i, was monitored with a Hitachi F-2000 fluorescence spectrophotometer in the presence of extracellular EGTA to chelate the extracellular Ca^+2 (Soslau, G. et al. 1995. Biochim. Biophys. Acta 1268:73-80). Platelets, as PRP, were pre-loaded with 1 μM Fura-2 AM for 45 to 60 minutes and then washed and resuspended in hepes Tyrode's buffer at a concentration of […]. Samples were incubated at room temperature with or without 10 μM SCH 203099 for one hour prior to analysis. […] Agonists were added through an injection port at various concentrations. Excitation wavelengths were 340 nm and 380 nm and emission was measured at 505 nm. […]
# [9] = system: platelets; assay: Platelet aggregation induced by U46619 and ADP; type: cell-based, human
# [10] = system: γ-thrombin; assay: Sensitivity of γ-thrombin to thrombin inhibitors; type: cell-based
# [11] = system: α-thrombin; assay: Sensitivity of α-thrombin to thrombin inhibitors; type: cell-based
# [12] = system: β-thrombin; assay: Sensitivity of β-thrombin to thrombin inhibitors; type: cell-based
molecule,measurement,setting,value
NCCc1ccc(S(=O)(=O)F)cc1 [AEBSF],inhibition of thrombin activity,[1],> 90%
same,"effect on aggregation, added to thrombin prior to the addition of fibrinogen and platelets",[2],completely inhibited
same,"effect on aggregation, added after formation of the thrombin-fibrin complex but prior to the addition of platelets",[3],did not inhibit
CNc1nc(NC2CC2)nc2ccc3c(ccn3Cc3ccc(C(C)C)cc3)c12 [SCH203099],ATP release of drug-treated platelets aggregating under conditions dependent on polymerizing fibrin,[4],equal amounts of ATP release
same,inhibition of platelet activation induced by TRAP-4,[5]; 1 mM TRAP-4,did not inhibit
same,inhibition of platelet activation induced by γ-thrombin,[5]; 10 to 30 nM γ-thrombin,did not inhibit
same,aggregation profile of preincubated/treated platelets stimulated with α-thrombin,"[2]; relative to controls, ultimately reached a similar level of aggregation",delayed aggregation profile
same,inhibition of TRAP-1-induced aggregation,[6]; SCH203099 5 to 10 μM,completely inhibited
same,response of treated platelets to low dose α-thrombin plus TRAP-4,[7],significant response
same,mobilization of internal calcium in response to TRAP-1 in treated platelets,[8],only control platelets responded
same,mobilization of internal calcium in response to α-thrombin in treated platelets,[8]; compared to controls,delayed
GPRP,effect on α-thrombin-induced platelet aggregation,[2]; thrombin plus fibrinogen,no significant effect
RGDS,aggregation in the presence of RGDS without added fibrinogen,[2]; residual adhering/endogenous fibrinogen only,none occurred
same,effect on rapid onset α-thrombin-induced PAR-1 pathway aggregation,"[6]; for the first few minutes, aggregation then ensued via the GP Ib pathway",inhibited
same,effect on aggregation via the PAR-1 pathway when γ407 replaced normal fibrinogen,[6]; until γ407 began to polymerize,initially blocked
same,aggregation with polymerizing γ407 via the GP Ib pathway in the presence of RGDS,[3],at a reduced level
same,effect on aggregation in the presence of polymerizing fibrin,[3]; platelets added to α-thrombin plus fibrinogen pre-incubated 2 minutes,not affected significantly
same,effect on aggregation induced by ADP,[9],completely blocked
same,effect on aggregation induced by U46619,[9],completely blocked
hirudin,sensitivity of γ-thrombin to the inhibitor,[10],totally insensitive
same,inhibition of α-thrombin,[11],completely inhibited
same,inhibition of β-thrombin,[12],completely inhibited
same,"effect on aggregation, inhibitor added to platelets followed by thrombin plus fibrinogen",[2]; hirudin 1 to 2 U/ml,completely inhibited
same,"effect on aggregation, inhibitor added 2 minutes after fibrinogen was pre-incubated with thrombin, platelets added 30 seconds later",[3]; polymerizing fibrin present,prevent aggregation completely
